Laboratory results reported in patent US20260337189A1, “Cryptolepine Salt Derivative, Preparation Method, and Use Thereof” (ZHEJIANG XINNONG CHEMICAL CO., LTD., priority 2023, published 2026).

Test system: rice sheath blight
Experiment: Test of resistance to rice sheath blight (bactericidal activity test)
Assay type: in vivo
Conditions: for Resistance to rice sheath blight: 400 mg/L, rice seedlings, sprayed 24 h before inoculation, 6 days after inoculation, visual inspection; for bactericidal activity against rice sheath blight: live pot test, Table 5, 400 mg/L
Method: Bactericidal activity test, the determination procedure is as follows:
Test of resistance to rice sheath blight: Select uniformly growing rice seedlings and spray them on the leaves at the set concentration, set a water spraying group as blank control, every treatment was repeated twice. After 24 h, the rice seedlings were inoculated with rice sheath blight strains and placed at room temperature (25±4° C.) for normal management after inoculation. The prevention and control effect was investigated by visual inspection 6 days after inoculation.

Row | Structure (SMILES) | Resistance to rice sheath blight | bactericidal activity against rice sheath blight
1 | Cc1ccc(S(=O)(=O)n2c3ccccc3c3c2cc2ccccc2[n+]3C)cc1.[Cl-] [Example 1] | 95 ± 5% | more than 95%
2 | Cc1ccc(S(=O)(=O)n2c3ccc(C)cc3c3c2cc2ccccc2[n+]3C)cc1.[Cl-] [Example 2] | 40 ± 0% | 
3 | COc1ccc2c(c1)c1c(cc3ccccc3[n+]1C)n2S(=O)(=O)c1ccc(C)cc1.[Cl-] [Example 3] | 35 ± 5% | 
4 | Cc1ccc(S(=O)(=O)n2c3ccc(C#N)cc3c3c2cc2ccccc2[n+]3C)cc1.[Cl-] [Example 8] | 30 ± 0% | 
5 | Cc1ccc(S(=O)(=O)n2c3ccccc3c3c2cc2cc(C)ccc2[n+]3C)cc1.[Cl-] [Example 9] | 70 ± 0% | more than 50%
6 | COc1ccc2c(c1)cc1c(c3ccccc3n1S(=O)(=O)c1ccc(C)cc1)[n+]2C.[Cl-] [Example 10] | 30 ± 0% | 
7 | Cc1ccc(S(=O)(=O)n2c3ccccc3c3c2cc2cc(F)ccc2[n+]3C)cc1.[Cl-] [Example 11] | 40 ± 0% | 
8 | Cc1ccc(S(=O)(=O)n2c3ccccc3c3c2cc2cc(Cl)ccc2[n+]3C)cc1.[Cl-] [Example 12] | 40 ± 0% | 
9 | Cc1ccc(S(=O)(=O)n2c3ccccc3c3c2cc2cc(C(F)(F)F)ccc2[n+]3C)cc1.[Cl-] [Example 14] | 60 ± 0% | more than 50%
10 | COC(=O)c1ccc2c(c1)cc1c(c3ccccc3n1S(=O)(=O)c1ccc(C)cc1)[n+]2C.[Cl-] [Example 15] | 40 ± 0% | 
11 | Cc1ccc(S(=O)(=O)n2c3ccccc3c3c2cc2ccc(C)cc2[n+]3C)cc1 [Example 16] | 95 ± 5% | more than 95%
12 | Cc1ccc(S(=O)(=O)n2c3ccccc3c3c2cc2ccc(Cl)cc2[n+]3C)cc1 [Example 17] | 40 ± 0% | 
13 | C[n+]1c2ccccc2cc2c1c1ccccc1n2S(=O)(=O)c1ccccc1 [Example 22] | 45 ± 5% | more than 50%
14 | CCCNc1c2ccccc2[n+](C)c2c1[nH]c1ccccc12 [Example 23] | 30 ± 0% | 
15 | C[n+]1c2ccccc2c(NCC2CC2)c2[nH]c3ccccc3c21 [Example 28] | 60 ± 0% | more than 50%
16 | C[n+]1c2ccccc2c(NCC2CCCCC2)c2[nH]c3ccccc3c21 [Example 30] | 35 ± 5% | 
17 | C[n+]1c2ccccc2c(NCCCC2CCCCC2)c2[nH]c3ccccc3c21.[I-] [Example 31] | 25 ± 5% | 
18 | C[n+]1c2ccccc2c(NCCN)c2[nH]c3ccccc3c21.[I-] [Example 32] | 30 ± 0% | 
19 | C[n+]1c2ccccc2c(NCC(C)(C)N)c2[nH]c3ccccc3c21.[I-] [Example 36] | 35 ± 5% | 
20 | CCNCCNc1c2ccccc2[n+](C)c2c1[nH]c1ccccc12.[I-] [Example 37] | 40 ± 0% | 
21 | CNCCCNc1c2ccccc2[n+](C)c2c1[nH]c1ccccc12.[I-] [Example 38] | 30 ± 0% | 
22 | CN(C)CC(C)(C)CNc1c2ccccc2[n+](C)c2c1[nH]c1ccccc12.[I-] [Example 39] | 25 ± 5% | 
23 | C[n+]1c2ccccc2c(NCC2CCCNC2)c2[nH]c3ccccc3c21.[I-] (stereo not drawn) [Example 43] | 30 ± 0% | 
24 | CN1CCC(Nc2c3ccccc3[n+](C)c3c2[nH]c2ccccc23)CC1.[I-] [Example 44] | 55 ± 5% | more than 50%
25 | CN1CCC(CNc2c3ccccc3[n+](C)c3c2[nH]c2ccccc23)CC1.[I-] [Example 45] | 30 ± 0% | 
26 | C[n+]1c2ccccc2cc2[nH]c3ccc(Br)cc3c21 [Reference Example 1, 5-methyl-7-bromo 5H-indolo[3,2-b]quinoline, reference compound] | 0% | 
